Experimental data: patent publication US11034685B2, “Aminopyridine derivatives as TAM family kinase inhibitors” (SignalChem Lifesciences Corporation, priority 2013, dated 2021)

Legend:
Assay type in all cases: biochemical
[1] = target: T1, Recombinant human Tyro3 (455-end) (Homo sapiens, UniProt Q06418); test: Kinase enzymatic activity assay ([33P]-ATP phosphate transfer), Tyro3; settings: inhibitory activity on Tyro3; class symbols
T1 construct: GST (N); made in house; host or cells: Sf9 insect cells (baculovirus)
T1 sequence (Q06418 455-890 limits assumed): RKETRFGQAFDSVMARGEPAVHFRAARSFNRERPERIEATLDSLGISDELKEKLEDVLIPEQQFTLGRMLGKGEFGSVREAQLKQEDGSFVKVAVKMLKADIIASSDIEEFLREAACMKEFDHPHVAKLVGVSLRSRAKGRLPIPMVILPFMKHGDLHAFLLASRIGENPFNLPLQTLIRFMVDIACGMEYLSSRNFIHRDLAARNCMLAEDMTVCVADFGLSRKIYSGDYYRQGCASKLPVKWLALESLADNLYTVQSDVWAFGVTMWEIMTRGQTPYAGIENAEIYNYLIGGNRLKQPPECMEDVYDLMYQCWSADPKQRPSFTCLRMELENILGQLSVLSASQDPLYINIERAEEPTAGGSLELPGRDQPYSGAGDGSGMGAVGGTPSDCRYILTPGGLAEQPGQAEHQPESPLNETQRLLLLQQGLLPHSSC
Experimental: (§1) Preparation of Active Recombinant Kinase Proteins:
(§2) Recombinant human Tyro3 (455-end, the gene accession number NM_006293), human Axl (473-end, the gene accession number NM_021913) and human Mer (578-872, the gene accession number NM_006343) were independently expressed by baculovirus in Sf9 insect cells using an N-terminal GST tag. The recombinant proteins were stored at −70° C. in a medium containing 50 mM Tris-HCl, pH 7.5, 150 mM NaCl, 10 mM glutathione, 0.1 mM EDTA, 0.25 mM DTT, 0.1 mM PMSF and 25% glycerol. The recombinant proteins were aliquoted into smaller quantities after centrifugation to avoid repeated handling and multiple freeze/thaw cycles for the most favorable performance.
(§3) Preparation of Assay Reagents:
(§4) Kinase Assay Buffer: This buffer solution consisted of the following components: 25 mM MOPS, pH 7.2, 12.5 mM β-glycerol-phosphate, 25 mM MgCl2, 5 mM EGTA, 2 mM EDTA and DTT 0.25 mM which was added prior to use.
(§5) Kinase Dilution Buffer: Kinase Assay Buffer was diluted at a 1:4 ratio (5× dilution) with distilled water.
(§6) [^33P]-ATP assay cocktail: In a designated radioactive working area, a 250 μM [^33P]-ATP assay cocktail was prepared by the addition of the following components: 150 μL of 10 mM ATP stock solution, 100 μL [^33P]-ATP (1 mci/100 μL), 5.75 mL of kinase assay buffer. This solution was stored in 1 mL aliquots at −20 OC.
(§7) ATP stock solution (10 mM): The ATP stock solution was prepared by dissolving 55 mg of ATP in 10 mL of kinase assay buffer. It was stored in 200 μL aliquots at −20° C.
(§8) Active Kinase Stock Solution: The active recombinant kinase protein (0.1 μg/μL) was diluted with Kinase Dilution Buffer and the activity was assayed using a serial dilution method. The specific activity is expressed in nmoL/min/mg.
(§9) Substrates: poly(4:1 glu:tyr) is the substrate used for each kinase Tyro3, Axl and Mer: The peptide substrate was dissolved in water to give the final concentration of 1 mg/mL.
(§10) Test compound solution: Test compound was dissolved in DMSO to obtain a 10 mM solution. The assay solution was prepared by adding 5 μL of this solution to […] of 10% DMSO/water to obtain the final concentration of 50 μM.
(§11) The enzymatic activity of all three kinases was determined as follows. Using a 96-well plate, the wells were divided into three categories: Blank wells, […] and Test wells. In Test wells, 5 μL of the test compound solution and 5 μL of the substrate solution were added. In Control wells, 5 μL of 10% DMSO/water and 5 μL of the substrate solution were added. In Blank wells, 10 μL of 10% DMSO/water was added. To each well was added 10 μL of Active Kinase Stock Solution to make up the volume in each well to 20 μL. All test samples, controls and blanks were run in duplicate. The reaction was initiated by the addition of 5 μL of [^33P]-ATP assay cocktail, bringing the final volume up to 25 μL in every well. The mixture was incubated at room temperature for 30 minutes. The reaction was terminated by transferring 10 μL of the reaction mixture into a Millipore MultiScreen filter plate (cat. number MSPHN6B50). The filter plate was washed in a 1% phosphoric acid solution with constant gentle shaking for 15 minutes and this step was repeated once. After the plate was dried in air, scintillation fluid was added to each well and the radioactivity in each well in CPM was counted by a Microbeta TriLux. The corrected CPM in each test well was determined by subtracting the average value of Blank well values. Percentage of inhibition of the kinase enzymatic activity by the test compound was determined using the following formula: […]
(§12) The IC50 values were determined in a similar way following a serial dilution of the test compound. The percentage of inhibition at each concentration was calculated following the above formula. The IC50 was estimated from the curve of % Inhibition against Concentration in log unit using Prism 5, version 5.01.

human Mer (578-872) = target: T2, human Mer (578-872) (Homo sapiens, UniProt Q12866); test: Kinase enzymatic activity assay ([33P]-ATP phosphate transfer), Mer; settings: inhibitory activity on Mer; class symbols
T2 construct: GST (N); made in house; host or cells: Sf9 insect cells (baculovirus)
T2 sequence (Q12866 578-872): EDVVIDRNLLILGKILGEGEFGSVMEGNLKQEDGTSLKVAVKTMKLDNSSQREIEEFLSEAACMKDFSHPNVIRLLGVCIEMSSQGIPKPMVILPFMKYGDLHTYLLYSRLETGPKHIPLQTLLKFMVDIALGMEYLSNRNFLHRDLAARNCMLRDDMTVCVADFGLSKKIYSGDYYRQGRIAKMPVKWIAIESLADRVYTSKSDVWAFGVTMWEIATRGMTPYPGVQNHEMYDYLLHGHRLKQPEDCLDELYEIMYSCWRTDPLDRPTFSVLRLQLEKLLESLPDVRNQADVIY
Experimental: as §1, §2, §3, §4, §5, §6, §7, §8, §9, §10, §11, §12

human Axl (473-end) = target: T3, human Axl (473-end) (Homo sapiens, UniProt P30530); test: Kinase enzymatic activity assay ([33P]-ATP phosphate transfer), Axl; settings: inhibitory activity on Axl; class symbols
T3 construct: GST (N); made in house; host or cells: Sf9 insect cells (baculovirus)
T3 sequence (P30530 473-894 limits assumed): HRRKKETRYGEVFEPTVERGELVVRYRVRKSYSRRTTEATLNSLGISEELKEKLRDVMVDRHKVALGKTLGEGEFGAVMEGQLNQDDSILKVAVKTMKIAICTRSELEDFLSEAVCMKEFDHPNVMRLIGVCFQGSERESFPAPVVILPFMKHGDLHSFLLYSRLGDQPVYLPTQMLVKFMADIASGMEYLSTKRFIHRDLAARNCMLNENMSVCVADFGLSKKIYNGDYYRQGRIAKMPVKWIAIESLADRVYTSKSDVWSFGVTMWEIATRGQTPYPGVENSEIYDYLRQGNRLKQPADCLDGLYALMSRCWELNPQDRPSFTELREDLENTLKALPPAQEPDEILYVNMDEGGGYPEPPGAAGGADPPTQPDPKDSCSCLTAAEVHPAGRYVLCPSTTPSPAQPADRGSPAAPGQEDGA
Experimental: as §1, §2, §3, §4, §5, §6, §7, §8, §9, §10, §11, §12

Structure (SMILES) | IC50 [1] [nM] | IC50 (human Mer (578-872)) [nM] | IC50 (human Axl (473-end)) [nM]
CN1CCC(n2cc(-c3cnc(N)c(-c4ncc(-c5cccc(Cl)c5)o4)c3)cn2)CC1 [3-(5-(3-chlorophenyl)oxazol-2-yl)-5-(1-(1-methylpiperidin-4-yl)-1H-pyrazol-4-yl)pyridin-2-amine] | < 500 | < 500 | < 500
Nc1ncc(-c2cnn(C3CCNCC3)c2)cc1-c1ncc(-c2cccc(Cl)c2)o1 [3-(5-(3-chlorophenyl)oxazol-2-yl)-5-(1-(piperidin-4-yl)-1H-pyrazol-4-yl)pyridin-2-amine] | < 500 | < 500 | < 500
Nc1ncc(-c2cnn(C3CCCCC3)c2)cc1-c1ncc(-c2cccc(Cl)c2)o1 [3-(5-(3-chlorophenyl)oxazol-2-yl)-5-(1-cyclohexyl-1H-pyrazol-4-yl)pyridin-2-amine] | 1000 to 10000 | 1000 to 10000 | 1000 to 10000
CC(C)(C)c1ccc(-c2nnc(-c3cc(-c4cnn(C5CCNCC5)c4)cnc3N)o2)cc1 [3-(5-(4-(tert-butyl)phenyl)-1,3,4-oxadiazol-2-yl)-5-(1-(piperidin-4-yl)-1H-pyrazol-4-yl)pyridin-2-amine] | < 500 | < 500 | < 500
CC(C)(C)c1ccc(-c2nnc(-c3cc(-c4cn[nH]c4)cnc3N)o2)cc1 [3-(5-(4-(tert-butyl)phenyl)-1,3,4-oxadiazol-2-yl)-5-(1H-pyrazol-4-yl)pyridin-2-amine] | > 10000 | > 10000 | 1000 to 10000
CN1CCC(n2cc(-c3cnc(N)c(-c4ncc(-c5ccc(Cl)cc5)o4)c3)cn2)CC1 [3-(5-(4-chlorophenyl)oxazol-2-yl)-5-(1-(1-methylpiperidin-4-yl)-1H-pyrazol-4-yl)pyridin-2-amine] | < 500 | < 500 | < 500
Nc1ncc(-c2cnn(C3CCNCC3)c2)cc1-c1ncc(-c2ccc(Cl)cc2)o1 [3-(5-(4-chlorophenyl)oxazol-2-yl)-5-(1-(piperidin-4-yl)-1H-pyrazol-4-yl)pyridin-2-amine] | < 500 | < 500 | < 500
Nc1ncc(-c2cnn(C3CCCCC3)c2)cc1-c1ncc(-c2ccc(Cl)cc2)o1 [3-(5-(4-chlorophenyl)oxazol-2-yl)-5-(1-cyclohexyl-1H-pyrazol-4-yl)pyridin-2-amine] | > 10000 | > 10000 | > 10000
Nc1ncc(-c2cnn(C3CCNCC3)c2)cc1-c1nnc(-c2ccc(F)cc2)o1 [3-(5-(4-fluorophenyl)-1,3,4-oxadiazol-2-yl)-5-(1-(piperidin-4-yl)-1H-pyrazol-4-yl)pyridin-2-amine] | < 500 | < 500 | < 500
Nc1ncc(-c2cn[nH]c2)cc1-c1nnc(-c2ccc(F)cc2)o1 [3-(5-(4-fluorophenyl)-1,3,4-oxadiazol-2-yl)-5-(1H-pyrazol-4-yl)pyridin-2-amine] | < 500 | 500 to 1000 | < 500
Nc1ncc(-c2cnn(C3CCNCC3)c2)cc1-c1nnc(CC2CC2)o1 [3-(5-(cyclopropylmethyl)-1,3,4-oxadiazol-2-yl)-5-(1-(piperidin-4-yl)-1H-pyrazol-4-yl)pyridin-2-amine] | < 500 | < 500 | < 500
Nc1ncc(-c2cnn(C3CCNCC3)c2)cc1-c1nnc(Cc2ccccc2)o1 [3-(5-benzyl-1,3,4-oxadiazol-2-yl)-5-(1-(piperidin-4-yl)-1H-pyrazol-4-yl)pyridin-2-amine] | < 500 | < 500 | < 500
Nc1ncc(-c2cnn(C3CCNCC3)c2)cc1-c1noc(-c2ccccc2)n1 [3-(5-phenyl-1,2,4-oxadiazol-3-yl)-5-(1-(piperidin-4-yl)-1H-pyrazol-4-yl)pyridin-2-amine] | < 500 | < 500 | < 500
Nc1ncc(-c2cnn(C3CCOCC3)c2)cc1-c1noc(-c2ccccc2)n1 [3-(5-phenyl-1,2,4-oxadiazol-3-yl)-5-(1-(tetrahydro-2H-pyran-4-yl)-1H-pyrazol-4-yl)pyridin-2-amine] | 500 to 1000 | 1000 to 10000 | < 500
Nc1ncc(-c2cn[nH]c2)cc1-c1noc(-c2ccccc2)n1 [3-(5-phenyl-1,2,4-oxadiazol-3-yl)-5-(1H-pyrazol-4-yl)pyridin-2-amine] | < 500 | 1000 to 10000 | < 500
Nc1ncc(-c2cnn(C3CCNCC3)c2)cc1-c1nnc(-c2ccccc2)o1 [3-(5-phenyl-1,3,4-oxadiazol-2-yl)-5-(1-(piperidin-4-yl)-1H-pyrazol-4-yl)pyridin-2-amine] | < 500 | < 500 | < 500
Nc1ncc(-c2cnn(C3CCOCC3)c2)cc1-c1nnc(-c2ccccc2)o1 [3-(5-phenyl-1,3,4-oxadiazol-2-yl)-5-(1-(tetrahydro-2H-pyran-4-yl)-1H-pyrazol-4-yl)pyridin-2-amine] | < 500 | < 500 | < 500
Nc1ncc(-c2cn[nH]c2)cc1-c1nnc(-c2ccccc2)o1 [3-(5-phenyl-1,3,4-oxadiazol-2-yl)-5-(1H-pyrazol-4-yl)pyridin-2-amine] | < 500 | 500 to 1000 | < 500
Nc1ncc(-c2cnn(C3CCNCC3)c2)cc1-c1ccc(-c2ccccc2)o1 [3-(5-phenylfuran-2-yl)-5-(1-(piperidin-4-yl)-1H-pyrazol-4-yl)pyridin-2-amine] | < 500 | 500 to 1000 | < 500
